Results: US20240270692A1, “S(+) FORM OF 4-(2,4-DIFLUOROPHENYL)-2-(1H-INDOL-3-YL)-4-OXO-BUTANOIC ACID” (TOHOKU UNIVERSITY, priority 2021, published 2024)
“Also recorded” adds a separate entry of the source.

Tests used:
[1] = test system: Rat fetal cardiomyoblast cells H9c2; assay: Effect of suppressing DNA damage caused by camptothecin (γH2AX immunostaining); assay type: cell-based; conditions: camptothecin 10 μM plus compound 30 μM, cultured 24 hours
Procedure: Rat fetal cardiomyoblast cells H9c2 were maintained and cultured in a DMEM medium (10% FBS, penicillin at 100 units/mL, streptomycin at 100 μg/mL). Camptothecin (CPT) at a final concentration of 10 μM, CPT at a final concentration of 10 μM, and MA5 (racemic form, S(+) form, or R(−) form) at a final concentration of 30 μM, or DMSO (control) were added. The cells were cultured for 24 hours, then the medium was removed, and γH2AX (phosphorylated H2AX), which is an indicator for DNA damage, was detected by immunostaining. The immunostaining was carried out by using a mouse anti-γH2AX antibody (Thermo Fisher) as a primary antibody and a CF568-labeled goat anti-mouse IgG antibody (Biotium Inc.) as a secondary antibody.

[2] = Metabolism test using human liver microsomes (LC/HRMS); assay type: in vitro ADME; conditions: incubated 37° C. for 1 hour
Procedure: The S(+) form or the R(−) form of MA5 was dissolved in acetonitrile (for LC-MS, manufactured by Kanto Chemical Co., Inc.) and each adjusted to 10 mM. 855 mg of sucrose (manufactured by FUJIFILM Wako Pure Chemical Corporation) was dissolved in 10 mL of water to prepare a 250 mM sucrose solution, and then by using this solution, a liquid containing 20 mg/mL human liver microsomes (8-donor-pool, manufactured by Sekisui XenoTech, LLC) was diluted 4-fold to prepare a 5 mg/mL human liver microsome suspension. In a 1 mL tube, 5 μL of three test solutions (sucrose solution containing 10 mM S(+) form of MA5, sucrose solution containing 10 mM R(−) form of MA5, or control Vehicle [sucrose solution]), 5 μL of NADPH Regenerating System Solution B (manufactured by Corning Incorporated), 100 μL of UGT Reaction Mix Solution B (manufactured by Corning Incorporated), and 275 μL of water were added to 50 μL of the human liver microsome suspension, and the resulting mixture was shaken for 30 seconds and preincubated at 37° C. for 5 minutes. After that, 25 μL of NADPH Regenerating System Solution A (manufactured by Corning Incorporated) and 40 μL of UGT Reaction Mix Solution A (manufactured by Corning Incorporated) were added, and the resulting mixture was shaken for 30 seconds and incubated at 37° C. for 1 hour. The reaction was stopped by adding 500 μL of an ice-cold acetonitrile solution containing 0.1% formic acid, and the resulting mixture was shaken for 30 seconds, sonicated for 10 minutes, and then centrifuged at 20,000×g at 4° C. for 10 minutes. 50 μL of the supernatant was collected in a fresh 1 mL tube, centrifugally concentrated at 2,000 rpm at room temperature (25 to 35° C.) for 30 minutes, and frozen at −80° C. […]
Q-Exactive (manufactured by Thermo Fisher Scientific Inc.) was used as an HRMS apparatus. […] Additional MS^2 data were measured in target MS^2 mode for both positive and negative ions. […]

SMILES | fluorescence intensity of γH2AX (phosphorylated H2AX) [1] | glucuronide conjugates (+C6H8O6 [+1.7 min, +2.6 min]) [2]
O=C(C[C@H](C(=O)O)c1c[nH]c2ccccc12)c1ccc(F)cc1F [S(+) form of MA5, 4-(2,4-difluorophenyl)-2-(1H-indol-3-yl)-4-oxo-butanoic acid] | a decrease in the fluorescence intensity of phosphorylated H2AX was observed; also recorded: the level of γH2AX was low | detected only at a level that was little or no different from the control
O=C(C[C@@H](C(=O)O)c1c[nH]c2ccccc12)c1ccc(F)cc1F [R(−) form of MA5, 4-(2,4-difluorophenyl)-2-(1H-indol-3-yl)-4-oxo-butanoic acid] | not observed | detected
